Results from ChEMBL document CHEMBL1268998, “Detection of Rap1A as a yessotoxin binding protein from blood cell membranes” (Bioorg Med Chem Lett, 2010).

What was measured:
Type in all cases: cell membranes
[1] = molecular target: T1, Ras-related protein Rap-1A (Homo sapiens, UniProt P62834); assay: Binding affinity to RAP1A in human RBC membrane by surface plasmon resonance analysis with inverted configuration
T1 sequence (P62834 whole entry): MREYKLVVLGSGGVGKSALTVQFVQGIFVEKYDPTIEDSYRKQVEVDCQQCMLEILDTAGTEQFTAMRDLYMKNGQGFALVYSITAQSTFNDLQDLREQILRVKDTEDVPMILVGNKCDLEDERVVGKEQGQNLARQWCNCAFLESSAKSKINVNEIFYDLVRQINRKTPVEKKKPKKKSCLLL

[2] = molecular target: T1, Ras-related protein Rap-1A; assay: Binding affinity to RAP1A in human RBC membrane by surface plasmon resonance analysis
[3] = molecular target: T1, Ras-related protein Rap-1A; assay: Binding affinity to RAP1A in human RBC membrane by Western blot analysis

Row | Structure (SMILES) | Kd [1] | Kd [2] | Kd [3]
1 | C=CCC(=C)/C=C/[C@@](C)(O)[C@H]1O[C@@H]2C[C@@H]3O[C@@H]4C[C@@H]5O[C@@H]6C[C@@H]7O[C@@H]8C[C@@H]9O[C@@H]%10C[C@@H]%11O[C@](C)(CCO)[C@@H](O)C[C@H]%11O[C@H]%10C[C@H]9O[C@H]8CC[C@@]7(C)O[C@@]6(C)CC[C@H](C)[C@H]5O[C@H]4[C@@H](O)[C@@]3(C)O[C@H]2CC1=C [DESULFO-YESSOTOXIN] | 0.5 µM |  | 
2 | C=CCC(=C)/C=C/[C@@](C)(O)[C@H]1O[C@@H]2C[C@@H]3O[C@@H]4C[C@@H]5O[C@@H]6C[C@@H]7O[C@@H]8C[C@@H]9O[C@@H]%10C[C@@H]%11O[C@](C)(CCOS(=O)(=O)O)[C@@H](OS(=O)(=O)O)C[C@H]%11O[C@H]%10C[C@H]9O[C@H]8CC[C@@]7(C)O[C@@]6(C)CC[C@H](C)[C@H]5O[C@H]4C[C@@]3(C)O[C@H]2CC1=C [YESSOTOXIN] |  | 4 µM | 4 µM
